Here are results for ten compounds from ChEMBL document CHEMBL1201862, “PubChem BioAssay data set” (2004).

The structures appear in SMILES notation.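 48-hour exposure; five concentrations; linearly interpolated endpoints. Here, GI50 denotes the concentration required for 50% inhibition of growth.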 Active and inactive are the calls of the source. Cut-off read from the data, not from the text of the source: active = GI50 up to about 1.1 µM and inactive = higher. Bounds are passed on as bounds.

Some test systems named below: CCRF-CEM; SF-539; KM12; RXF 393; SNB-19; SW-620; COLO 205; OVCAR-3; UACC-257; A549; NCI-H23; OVCAR-8; IGROV-1; SK-MEL-5; SK-MEL-28; SF-295; U-251; HT-29; HCT-116; ACHN.
Common to all, as to experiment: growth of human tumour cells (NCI), 48 h

On to `O=C(NN1C(=O)C(Cl)C1c1ccc([N+](=O)[O-])cc1)c1ccccc1O` (stereo not given), for which the GI50 in the assay on CCRF-CEM was > 100 µM (inactive); with SF-539, > 100 µM (inactive); with KM12, > 100 µM (inactive); in the assay on RXF 393 it was > 100 µM (inactive); in the assay on SNB-19 it was 68.1 µM (inactive); in the assay on SW-620 it was > 100 µM (inactive). For the same compound, the GI50 in the assay with COLO 205, with OVCAR-3, with UACC-257, in the assay on A549, in the assay on NCI-H23 and with OVCAR-8 was > 100 µM (inactive) each time. The GI50 in the assay with IGROV-1, in the assay on SK-MEL-5, in the assay with SK-MEL-28, with SF-295, with U-251 and with HT-29 was > 100 µM (inactive) throughout. Besides, the GI50 in the assay with HCT-116 is > 100 µM (inactive).

Regarding `Nc1c(S(=O)(=O)O)cc2cc(S(=O)(=O)O)ccc2c1/N=N/c1ccc(-c2ccc(/N=N/c3c(N)c(S(=O)(=O)O)cc4cc(S(=O)(=O)O)ccc34)c(S(=O)(=O)O)c2)cc1`, the GI50 in the assay on CCRF-CEM is > 89.3 µM (inactive); with SF-539, > 100 µM (inactive); with KM12, > 100 µM (inactive); in the assay on RXF 393, > 100 µM (inactive); with SNB-19 it was > 100 µM (inactive); with SW-620 it was > 100 µM (inactive). In addition, the GI50 in the assay on COLO 205 is > 100 µM (inactive); in the assay with OVCAR-3 it was 71.3 µM (inactive); in the assay with UACC-257, > 100 µM (inactive); in the assay on A549, > 83.4 µM (inactive); in the assay on NCI-H23 it was > 100 µM (inactive); with OVCAR-8 it was > 100 µM (inactive). Besides, the GI50 in the assay on IGROV-1 was 54.7 µM (inactive); in the assay on SK-MEL-5, > 100 µM (inactive); in the assay with SK-MEL-28, > 100 µM (inactive); in the assay with SF-295, > 100 µM (inactive); in the assay on U-251 it was > 100 µM (inactive); in the assay on HT-29 it was > 100 µM (inactive). In addition, the GI50 with HCT-116 is > 100 µM (inactive).

Turning to `NN1C(=O)C(CCO)S/C1=N/N=C1/SC(CCO)C(=O)N1N` (stereo not given), the GI50 in the assay with CCRF-CEM, with SF-539, in the assay with KM12, in the assay on RXF 393, with SNB-19 and in the assay on SW-620 was > 100 µM (inactive) each time. Also, the GI50 in the assay with COLO 205, with OVCAR-3, in the assay on UACC-257, in the assay on A549, in the assay with NCI-H23 and in the assay with OVCAR-8 was > 100 µM (inactive) throughout. Moreover, the GI50 in the assay on IGROV-1, in the assay on SK-MEL-5, in the assay on ACHN, in the assay with SK-MEL-28, in the assay with SF-295 and in the assay on U-251 was > 100 µM (inactive) in each case. Further, the GI50 in the assay on HT-29 and with HCT-116 was > 100 µM (inactive) throughout.

For `c1ccc(C(c2ccccc2)[P+](c2ccccc2)(c2ccccc2)c2ccccc2)cc1`, the GI50 with CCRF-CEM is 0.317 µM (active); in the assay with SF-539 it was 1.27 µM (inactive); with KM12 it was 0.241 µM (active); in the assay on RXF 393 it was 2.24 µM (inactive); in the assay on SNB-19, 0.526 µM (active); with SW-620, 0.466 µM (active). In addition, the GI50 with COLO 205 was 0.289 µM (active); with OVCAR-3, 0.336 µM (active); with UACC-257, 0.348 µM (active); in the assay with A549 it was 0.422 µM (active); with NCI-H23 it was 0.45 µM (active); in the assay with OVCAR-8, 0.542 µM (active). Besides, the GI50 was 0.394 µM (active) with IGROV-1; 0.37 µM (active) with SK-MEL-5; 0.446 µM (active) in the assay with SK-MEL-28; 1.7 µM (inactive) in the assay on SF-295; 0.431 µM (active) in the assay with U-251; 0.332 µM (active) in the assay with HT-29. Also, the GI50 with HCT-116 was 0.326 µM (active).

In the case of `CCOC(=O)c1cn(CC)c(=O)n2c1nc1ccccc12`, the GI50 in the assay on CCRF-CEM was 28.4 µM (inactive); in the assay with SF-539, 55.5 µM (inactive); in the assay with KM12, 59.6 µM (inactive); with RXF 393, 61.9 µM (inactive); in the assay on SNB-19 it was > 100 µM (inactive); in the assay with SW-620, > 100 µM (inactive). Besides, the GI50 is > 100 µM (inactive) in the assay with COLO 205; 83.8 µM (inactive) in the assay on OVCAR-3; > 100 µM (inactive) with UACC-257; 58.7 µM (inactive) with A549; 55.7 µM (inactive) in the assay with NCI-H23; 38.3 µM (inactive) with OVCAR-8. Besides, the GI50 with IGROV-1 was 33.3 µM (inactive); in the assay with SK-MEL-5, 49.8 µM (inactive); in the assay with ACHN, 55 µM (inactive); in the assay on SK-MEL-28 it was > 100 µM (inactive); in the assay with SF-295, > 100 µM (inactive); in the assay with U-251, > 100 µM (inactive). The figures for the GI50 with HT-29 and in the assay with HCT-116 were 36.7 µM (inactive) and 50.6 µM (inactive), respectively.

In the case of `CC1(C)C(N2CCOCC2)CS1(=O)=O` (stereo not given), the GI50 with CCRF-CEM, in the assay with SF-539, in the assay on KM12, in the assay with RXF 393, in the assay with SNB-19 and in the assay with SW-620 was > 10 µM (inactive) in each case. The GI50 with COLO 205, with OVCAR-3, in the assay with UACC-257, in the assay with A549, with NCI-H23 and in the assay with OVCAR-8 was > 10 µM (inactive) in each case. In addition, the GI50 with IGROV-1, in the assay on SK-MEL-5, in the assay with ACHN, in the assay on SK-MEL-28, in the assay with SF-295 and in the assay with U-251 was > 10 µM (inactive) throughout. Further, the GI50 with HT-29 and in the assay with HCT-116 was > 10 µM (inactive) in each case.

For the compound `COc1cccc2[s+]snc12`, the GI50 in the assay with CCRF-CEM is > 10 µM (inactive); with SF-539, 35.8 µM (inactive); in the assay on KM12 it was 59.6 µM (inactive); in the assay with RXF 393 it was 67 µM (inactive); in the assay with SNB-19, 50.6 µM (inactive); in the assay on SW-620, 29.4 µM (inactive). Moreover, the GI50 is > 100 µM (inactive) with COLO 205; > 100 µM (inactive) with OVCAR-3; 30.1 µM (inactive) in the assay on UACC-257; 77.6 µM (inactive) in the assay on A549; 57.7 µM (inactive) in the assay with NCI-H23; 26.9 µM (inactive) in the assay on OVCAR-8. In addition, the GI50 in the assay on IGROV-1 was > 100 µM (inactive); with SK-MEL-5 it was 24.3 µM (inactive); in the assay with ACHN it was 47.8 µM (inactive); with SK-MEL-28, > 100 µM (inactive); in the assay on SF-295 it was 46.3 µM (inactive); in the assay with U-251, > 10 µM (inactive). For the same compound, the values for the GI50 with HT-29 and in the assay with HCT-116 were 96.8 µM (inactive) and 45.4 µM (inactive), respectively.

On to `CSc1nc(SC)c2cnn(CC3CO3)c2n1` (stereo not given), for which the GI50 is 12.4 µM (inactive) with CCRF-CEM; 19.5 µM (inactive) in the assay with SF-539; 20.3 µM (inactive) with KM12; 17.8 µM (inactive) in the assay on RXF 393; 31.2 µM (inactive) in the assay on SNB-19; 11.6 µM (inactive) with SW-620. The GI50 in the assay on COLO 205 was 18.7 µM (inactive); with OVCAR-3, 25.1 µM (inactive); with UACC-257 it was 19.2 µM (inactive); in the assay with A549, 25.4 µM (inactive); in the assay on NCI-H23, 18.6 µM (inactive); with OVCAR-8, 9.18 µM (inactive). In addition, the GI50 is 19.4 µM (inactive) with IGROV-1; 13.3 µM (inactive) in the assay on SK-MEL-5; 13.9 µM (inactive) in the assay on SK-MEL-28; 24.6 µM (inactive) in the assay with SF-295; 19.1 µM (inactive) in the assay on U-251; 22 µM (inactive) in the assay on HT-29. In addition, the GI50 with HCT-116 was 13.4 µM (inactive).

On to `COc1cccc2c1C(=O)c1c(O)c3c(c(O)c1C2=O)CC(O)(C(=O)CO)CC3OC1CC(N)C(I)C(C)O1` (stereo not given), for which the GI50 is 1.08 µM (active) in the assay with CCRF-CEM; 2.62 µM (inactive) in the assay with SF-539; > 30.3 µM (inactive) in the assay on KM12; 2.44 µM (inactive) in the assay with RXF 393; 3.12 µM (inactive) in the assay on SNB-19; 3.08 µM (inactive) in the assay on SW-620. The GI50 in the assay with COLO 205 was 13.3 µM (inactive); in the assay on OVCAR-3 it was > 33.4 µM (inactive); with UACC-257 it was > 29.3 µM (inactive); in the assay with A549, 0.736 µM (active); in the assay on NCI-H23, 2.28 µM (inactive); in the assay on OVCAR-8, 3.58 µM (inactive). The GI50 was 1.88 µM (inactive) in the assay on IGROV-1; 2.64 µM (inactive) in the assay on SK-MEL-5; 15.2 µM (inactive) with SK-MEL-28; 2.1 µM (inactive) with SF-295; 2.7 µM (inactive) in the assay with U-251; 3.15 µM (inactive) in the assay on HT-29. Further, the GI50 in the assay on HCT-116 was 0.573 µM (active).

Regarding `Nc1nc(N)c(N=O)c(OCC2CCCCC2)n1`, the GI50 in the assay with CCRF-CEM was 5.36 µM (inactive); in the assay with SF-539, 8.91 µM (inactive); in the assay with KM12, 18.7 µM (inactive); in the assay on RXF 393, 7.1 µM (inactive); with SNB-19 it was 26.8 µM (inactive); with SW-620, 24 µM (inactive). Moreover, the GI50 in the assay with COLO 205 is 12.3 µM (inactive); in the assay on OVCAR-3, 8.47 µM (inactive); with UACC-257 it was 9.02 µM (inactive); in the assay with A549, 17.8 µM (inactive); with NCI-H23 it was 12.2 µM (inactive); with OVCAR-8, 15 µM (inactive). The GI50 is 3.23 µM (inactive) in the assay on IGROV-1; 9.73 µM (inactive) with SK-MEL-5; 1.06 µM (active) in the assay with ACHN; 15.7 µM (inactive) in the assay with SK-MEL-28; 13 µM (inactive) in the assay on SF-295; 15.7 µM (inactive) in the assay on U-251. Moreover, the results for the GI50 with HT-29 and in the assay with HCT-116 were 9.64 µM (inactive) and 9.12 µM (inactive), respectively.
